Measured values taken from the supplement of paper PMC4862054.

Experiments:
Details in all cases: incubation time: 72 h
BT-474 [1] = test: normalised response (% of control), CellTiter-Glo; higher = more viable cells (100 = DMSO, 0 = benzethonium chloride kill control)
Protocol: (§1)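 DSRT, 72 h incubation, CellTox Green / CellTiter-Glo readout. Signal is normalised to DMSO and benzethonium chloride controls. Value is the normalised response at dose 3.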

MFM-223 [2] = test: as above
Protocol: as §1

BT-549 [3] = test: as above
Protocol: as §1

MDA-MB-453 [4] = test: as above
Protocol: as §1

MDA-MB-436 [5] = test: as above
Protocol: as §1

CAL-51 [6] = test: as above
Protocol: as §1

MDA-MB-468 [7] = test: as above
Protocol: as §1

MCF-10A [8] = test: as above
Protocol: as §1

MDA-MB-231 [9] = test: as above
Protocol: as §1

SK-BR-3 = test: as above
Protocol: as §1

Hs578T [10] = test: as above
Protocol: as §1

HCC1599 [11] = test: as above
Protocol: as §1

CAL-148 [12] = test: as above
Protocol: as §1

CAL-120 [13] = test: as above
Protocol: as §1

HCC1143 [14] = test: as above
Protocol: as §1

HCC1937 [15] = test: as above
Protocol: as §1

DU-4475 [16] = test: as above
Protocol: as §1

HDQ-P1 [17] = test: as above
Protocol: as §1

CAL-85-1 [18] = test: as above
Protocol: as §1

BT-474 [19] = test: normalised response (% of control), CellTox Green; higher = less cell death (100 = DMSO, 0 = benzethonium chloride kill control)
How it was run: (§2)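 Normalised signals at single concentrations make up the values. They come from breast cancer cell lines seeded (20 µl suspension) into 384-well plates with compound at 5 concentrations in 10-fold steps over a compound-specific 10,000-fold range, incubated 72 h, and read for CellTox Green fluorescence then CellTiter-Glo luminescence. Each plate was normalised to 0.1 % DMSO (100) and a positive kill control (0).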

MFM-223 [20] = test: as above
How it was run: as §2

BT-549 [21] = test: as above
How it was run: as §2

MDA-MB-453 [22] = test: as above
How it was run: as §2

MDA-MB-436 [23] = test: as above
How it was run: as §2

CAL-51 [24] = test: as above
How it was run: as §2

MDA-MB-468 [25] = test: as above
How it was run: as §2

MCF-10A [26] = test: as above
How it was run: as §2

MDA-MB-231 [27] = test: as above
How it was run: as §2

HCC1599 [28] = test: as above
How it was run: as §2

CAL-148 [29] = test: as above
How it was run: as §2

CAL-120 [30] = test: as above
How it was run: as §2

HCC1143 [31] = test: as above
How it was run: as §2

HCC1937 [32] = test: as above
How it was run: as §2

DU-4475 [33] = test: as above
How it was run: as §2

HDQ-P1 [34] = test: as above
How it was run: as §2

CAL-85-1 [35] = test: as above
How it was run: as §2

Hs578T [36] = test: as above
How it was run: as §2

| SMILES | normalised response (BT-474 [1]) | normalised response (MFM-223 [2]) | normalised response (BT-549 [3]) | normalised response (MDA-MB-453 [4]) | normalised response (MDA-MB-436 [5]) | normalised response (CAL-51 [6]) | normalised response (MDA-MB-468 [7]) | normalised response (MCF-10A [8]) | normalised response (MDA-MB-231 [9]) | normalised response (SK-BR-3) | normalised response (Hs578T [10]) | normalised response (HCC1599 [11]) | normalised response (CAL-148 [12]) | normalised response (CAL-120 [13]) | normalised response (HCC1143 [14]) | normalised response (HCC1937 [15]) | normalised response (DU-4475 [16]) | normalised response (HDQ-P1 [17]) | normalised response (CAL-85-1 [18]) | normalised response (BT-474 [19]) | normalised response (MFM-223 [20]) | normalised response (BT-549 [21]) | normalised response (MDA-MB-453 [22]) | normalised response (MDA-MB-436 [23]) | normalised response (CAL-51 [24]) | normalised response (MDA-MB-468 [25]) | normalised response (MCF-10A [26]) | normalised response (MDA-MB-231 [27]) | normalised response (HCC1599 [28]) | normalised response (CAL-148 [29]) | normalised response (CAL-120 [30]) | normalised response (HCC1143 [31]) | normalised response (HCC1937 [32]) | normalised response (DU-4475 [33]) | normalised response (HDQ-P1 [34]) | normalised response (CAL-85-1 [35]) | normalised response (Hs578T [36]) |
| --- | --- | --- | --- | --- | --- | --- | --- | --- | --- | --- | --- | --- | --- | --- | --- | --- | --- | --- | --- | --- | --- | --- | --- | --- | --- | --- | --- | --- | --- | --- | --- | --- | --- | --- | --- | --- | --- |
| CCn1c(C(=O)N(C2CC2)C2CC2)cc2c3c(ncn3C)c(Nc3cc(C)n(C)n3)nc21 (100 nM) | 100% | 99.8% | 110% | 93.2% | 106% | 87.7% | 97% | 106% | 99.7% | 105% | 110% | 93% | 103% | 95.7% | 101% | 97.4% | 99.2% | 98.3% | 100% | 101% | 94.8% | 106% | 99.3% | 93.9% | 101% | 83.1% | 77.7% | 106% | 96% | 103% | 90.4% | 98.8% | 57.1% | 101% | 102% | 108% | – |
| CCNC(=O)CCC/C=C\C[C@@H]1[C@@H](/C=C/[C@@H](O)CCc2ccccc2)[C@H](O)C[C@@H]1O [Bimatoprost] (55 nM) | 97.2% | 104% | 98.3% | 99.1% | 100% | 90.4% | 94% | 90.1% | 100% | 91.7% | 94.9% | 99.4% | 95.8% | 99.7% | 99.7% | 97.1% | 94.7% | 94.2% | 92.4% | 98.7% | 101% | 94.8% | 97.6% | – | 103% | – | 89.2% | 99.8% | 97.2% | 95% | 98.3% | 110% | 76.7% | 96.9% | 64.3% | 83.9% | 103% |
| COc1cc(Nc2c(C#N)cnc3cc(OCCCN4CCN(C)CC4)c(OC)cc23)c(Cl)cc1Cl [Bosutinib] (100 nM) | 104% | 99.3% | 103% | 103% | 103% | 100% | 95.4% | 77.4% | 100% | 109% | 99% | 93.1% | 104% | 100% | 101% | 95.5% | 97.5% | 85.9% | 98.3% | 101% | 101% | 97.1% | 100% | 104% | 101% | 148% | 103% | 104% | 101% | 105% | 99.3% | 76.2% | 54.8% | 109% | 101% | 117% | – |
| CCN(CC)CCCC(C)Nc1ccnc2cc(Cl)ccc12 (configuration not stated) [Chloroquine] (1000 nM) | 101% | 93.4% | 103% | 81.3% | 108% | 78.1% | 83.1% | 94.4% | 98.1% | 82.9% | 96% | 97% | 86.9% | 110% | 97.4% | 90.6% | 93% | 103% | 102% | 79.8% | 87.7% | 105% | 96.3% | 85% | 85.5% | – | 86.3% | 98% | 97.9% | 104% | 103% | 109% | 102% | 99.9% | 88.4% | 110% | 99.3% |
| Nc1ccn([C@@H]2O[C@H](CO)[C@@H](O)C2(F)F)c(=O)n1 [Gemcitabine] (10 nM) | 89.3% | 100% | 61.3% | 139% | 64.2% | 82% | 52.2% | 102% | 85.3% | 79.6% | 99.3% | 89.5% | 77.9% | 94.9% | 68.3% | 90.8% | 96.8% | 102% | 85.6% | 97.1% | 95.2% | 92.5% | 105% | 97.1% | 84.7% | 48.3% | 103% | 97.9% | 100% | 36.9% | 99.7% | 102% | 111% | 101% | – | 85% | 102% |
| C=CCn1c(=O)c2cnc(Nc3ccc(N4CCN(C)CC4)cc3)nc2n1-c1cccc(C(C)(C)O)n1 [MK1775] (100 nM) | 87.1% | 82.4% | 91.1% | 67.6% | 69.4% | 94.7% | 89.2% | 73.3% | 81.5% | 79% | 87.7% | 81.2% | 73.4% | 79% | 89.2% | 90.7% | 93.4% | 74.6% | 90.3% | 95.4% | 97.1% | 105% | 96.5% | 63.2% | 82.8% | 76.1% | 84.2% | 70.8% | 90% | 73.4% | 97.8% | 98.6% | – | 94.9% | 98.5% | 77.2% | 66.1% |
| CCNC(=O)c1noc(-c2cc(C(C)C)c(O)cc2O)c1-c1ccc(CN2CCOCC2)cc1 [NVP-AUY922] (10 nM) | 116% | 70.4% | 73.2% | 101% | 56.4% | 99.3% | 32.4% | 95% | 110% | 55.8% | 104% | 111% | 114% | 103% | 107% | 95.7% | 101% | 77.1% | 107% | 95.4% | 106% | 81.9% | 101% | 70.9% | 118% | 107% | 65% | – | 112% | 107% | 93% | 119% | – | 98.7% | 104% | 73.1% | 105% |
| CC(C)n1cnc2c(NCCc3ccc(O)cc3)nc(-c3csc4ccccc34)nc21 [StemRegenin 1] (100 nM) | 100% | 104% | 99.2% | 93.8% | 101% | 80.8% | 93.8% | 99.5% | 112% | 103% | 103% | 91% | 103% | 112% | 109% | 96.9% | 98.4% | 95.2% | 98.8% | 80% | 98.8% | 100% | 109% | 118% | 89.2% | 105% | 117% | 111% | 99.5% | 103% | 102% | 96.3% | 98.2% | 102% | 88.2% | 113% | – |
| O=C(CCCCCCC(=O)Nc1ccccc1)NO [Vorinostat] (100 nM) | 96.2% | 97.8% | 100% | 101% | 97% | 69.6% | 110% | 101% | 93.6% | 94.5% | 98.2% | 113% | 108% | 96.1% | 98.8% | 97.7% | 99.6% | 97.1% | 105% | 71.5% | 99.6% | 96.8% | 102% | 74.1% | 86.3% | – | 91.4% | 92.3% | 95.5% | 102% | 90.8% | 109% | 102% | 97.7% | 102% | 94.8% | 108% |
